Reference: patent publication US12264155B2, “Compounds, pharmaceutical compositions, and methods of preparing compounds and of their use as ATR kinase inhibitors” (Repare Therapeutics Inc., priority 2018, dated 2025)

The molecules below were run on ATR kinase (CHK1 phosphorylation at Ser345) in HeLa S3 cells (assay: ATR assay in HeLa S3 cells (CHK1 p-Ser345 AlphaScreen SureFire, gemcitabine)). Conditions: Homo sapiens, HeLa S3, HeLa S3 whole cell assay, 3.5 to 4 hours.
Format: cell-based
Procedure: Media was then replaced by 20 μL per well Opti-MEM no phenol red and 5 μL of serial diluted compounds were added to the assay plate for a final DMSO concentration of 0.5%. […] The plate was incubated at 37° C., 1-5% CO2 for 3.5 to 4 hours.
Note: gemcitabine 1.5 µM.

Row | IC50 [nM] | Compound
1 | 27 | C[C@@H]1COCCN1c1nc2c(cnn2-c2cc[nH]n2)c(-c2ccccc2C(F)(F)F)c1Cl [Compound 149]
2 | 7.8 | C[C@@H]1COCCN1c1cc(-c2ccccc2C(F)(F)F)c2c(=O)[nH]n(-c3ccn[nH]3)c2n1 [Compound 150, 6-[(3R)-3-methylmorpholin-4-yl]-1-(1H-pyrazol-5-yl)-4-[2-(trifluoromethyl)phenyl]-2H-pyrazolo[3,4-b]pyridin-3-one]
3 | 9.1 | C[C@@H]1COCCN1c1cc(-c2cccnc2C(F)(F)F)c2c(=O)[nH]n(-c3ccn[nH]3)c2n1 [Compound 151]
4 | 22 | C[C@@H]1COCCN1c1cc(-c2ccccc2S(C)(=O)=O)c2c(=O)[nH]n(-c3ccn[nH]3)c2n1 [Compound 152]
